Assay results: article PMC5458078, “Global mapping of CARM1 substrates defines enzyme specificity and substrate recognition” (Nature Communications, 2017)

Columns and labels:
MCF7 CARM1 KO cells = assay: Quantitative MS of ADMA-containing peptides in MCF7 CARM1 KO cells expressing CARM1 28-608 or CARM1 140-608, and in CARM1 KO; format: cell-based, human
MCF7 cells = assay: Quantitative nanoLC-MS/MS (TMT) of ADMA-containing peptides, CARM1 KO vs parental; format: cell-based, human; parameters: Fold change KO/WT: scale not given here
[1] = log2 scale ratio, mean of n = 3
[2] = ADMA-containing peptide, MCF7, CARM1 knockout (KO1-3) vs wild type (WT1-3), TMT 6-plex experiment #1
[3] = CARM1 140-608 versus WT, difference of mean log2 values
[4] = CARM1 KO versus WT, difference of mean log2 values
[5] = CARM1 KO vs wild type MCF7 cells, 3 biological replicates each
[6] = difference of log2 means, CARM1 140-608 vs WT
[7] = difference of log2 means, KO vs WT
[8] = ADMA-containing peptide, CARM1 knockout (KO) vs wild type (WT) MCF7 cells, 6-plex TMT experiment #1, three biological replicates each, sheet "MCF7"
[9] = CARM1 140-608 vs WT, mean of 3 replicates, log2
[10] = KO vs WT, mean of 3 replicates, log2
[11] = MCF7, CARM1 KO vs WT, three biological replicates each
[12] = ratio on log2 scale, mean of 3 replicates
[13] = MCF7, CARM1 knockout vs wild type, n = 3 each
[14] = CARM1 140-608 versus WT, mean of three replicates (log2)
[15] = KO versus WT, mean of three replicates (log2)
[16] = MCF7, CARM1 KO (KO1-KO3) vs wild type (WT1-WT3)
[17] = mean, CARM1 140-608 versus WT (log2 scale)
[18] = mean, CARM1 KO versus WT (log2 scale)
[19] = CARM1 140-608 vs WT, mean of 3 replicates (log2 scale)
[20] = KO vs WT, mean of 3 replicates (log2 scale)

## YCLTAPNYrLK
MCF7 CARM1 KO cells; [1]
  CARM1 140-608/WT: -1.503
  KO/WT: -1.727
MCF7 cells; [2]
  Fold change KO/WT: -0.9585

## TAAALAPASLTSArMAPALSGANLTSPrVPLSAYER
MCF7 CARM1 KO cells; [1]
  CARM1 140-608/WT: -2.654
  KO/WT: -3.829
MCF7 cells; [2]
  Fold change KO/WT: -3.829

## KVPQPCSSATLNrLTVPrYSIPTGDPPPYPEIASQLAQGR
MCF7 CARM1 KO cells; [3]
  CARM1 140-608/WT: -2.332
MCF7 CARM1 KO cells; [4]
  KO/WT: -4.368
MCF7 cells; [5]
  Fold change KO/WT: -4.368

## LrQQLQAK
MCF7 CARM1 KO cells; [6]
  CARM1 140-608/WT: -1.5575
MCF7 CARM1 KO cells; [7]
  KO/WT: -2.723
MCF7 cells; [8]
  Fold change KO/WT: -3.626

## IPYPAGTLPNPLLPHPLHENEVLrHQLFAAPYR
MCF7 CARM1 KO cells; [9]
  CARM1 140-608/WT: -0.5059
MCF7 CARM1 KO cells; [10]
  KO/WT: -1.312
MCF7 cells; [11]
  Fold change KO/WT: -1.146

## LFHLPEYTWrLPCGGVR
MCF7 CARM1 KO cells; [1]
  CARM1 140-608/WT: 0.09104
  KO/WT: -2.175
MCF7 cells; [2]
  Fold change KO/WT: -2.1298

## ErYLGGIK
MCF7 CARM1 KO cells; [12]
  CARM1 140-608/WT: 0.1385
  KO/WT: 0.4212
MCF7 cells; [13]
  Fold change KO/WT: 0.4212

## FEGPQGQLGGGCPLrFEGPPGPVGTPLrFEGPIGQAGGGGFR
MCF7 CARM1 KO cells; [14]
  CARM1 140-608/WT: 1.054
MCF7 CARM1 KO cells; [15]
  KO/WT: -2.35
MCF7 cells; [8]
  Fold change KO/WT: -2.35

## DQPGTSAVPNLASVGTrLPPPLPQNLLYTVSErQPMYSR
MCF7 CARM1 KO cells; [14]
  CARM1 140-608/WT: -2.641
MCF7 CARM1 KO cells; [15]
  KO/WT: -3.343
MCF7 cells; [16]
  Fold change KO/WT: -3.343

## LGrLLGIFEQNQDRKHR
MCF7 CARM1 KO cells; [14]
  CARM1 140-608/WT: -0.3444
MCF7 CARM1 KO cells; [15]
  KO/WT: -0.4775
MCF7 cells; [8]
  Fold change KO/WT: -0.4775

## GPGGPrGGLGGGMR
MCF7 CARM1 KO cells; [17]
  CARM1 140-608/WT: 0.09567
MCF7 CARM1 KO cells; [18]
  KO/WT: -0.1983
MCF7 cells; [13]
  Fold change KO/WT: 0.08213

## FDGQPGQPSLLPrFDGLHGQPGPrFER
MCF7 CARM1 KO cells; [14]
  CARM1 140-608/WT: -1.6986
MCF7 CARM1 KO cells; [15]
  KO/WT: -2.399
MCF7 cells; [8]
  Fold change KO/WT: -2.047

## APrSLIPPIPVSPPILAPrLSSGALK
MCF7 CARM1 KO cells; [19]
  CARM1 140-608/WT: -0.773
MCF7 CARM1 KO cells; [20]
  KO/WT: -1.927
MCF7 cells; [16]
  Fold change KO/WT: -1.927

## APDEPQQAQVPHVWGWEVAGAPALrLQK
MCF7 CARM1 KO cells; [6]
  CARM1 140-608/WT: -2.552
MCF7 CARM1 KO cells; [7]
  KO/WT: -3.114
MCF7 cells; [8]
  Fold change KO/WT: -2.912

## MRPQPYGGTNPYSQQQGPPSGPQQGHGYPGQPYGSQTPQrYPMTMQGR
MCF7 CARM1 KO cells; [9]
  CARM1 140-608/WT: -0.1711
MCF7 CARM1 KO cells; [10]
  KO/WT: -1.781
MCF7 cells; [11]
  Fold change KO/WT: -2.959

## EELLrHQLLEK
MCF7 CARM1 KO cells; [9]
  CARM1 140-608/WT: -4.245
MCF7 CARM1 KO cells; [10]
  KO/WT: -5.464
MCF7 cells; [11]
  Fold change KO/WT: -4.489

## SAPWNSFLPPPPPMPGPrLGPGKPGLK
MCF7 CARM1 KO cells; [19]
  CARM1 140-608/WT: -1.2
MCF7 CARM1 KO cells; [20]
  KO/WT: -1.936
MCF7 cells; [2]
  Fold change KO/WT: -1.936

## KPLGTAPHCPrLPLRK
MCF7 CARM1 KO cells; [17]
  CARM1 140-608/WT: -2.5902
MCF7 CARM1 KO cells; [18]
  KO/WT: -4.08
MCF7 cells; [13]
  Fold change KO/WT: -4.08

## SLIPPIPVSPPILAPrLSSGALK
MCF7 CARM1 KO cells; [19]
  CARM1 140-608/WT: -0.7213
MCF7 CARM1 KO cells; [20]
  KO/WT: -2.509
MCF7 cells; [16]
  Fold change KO/WT: -3.075

## LLGQRPGPYDRPIGGrGGYYGAGrGSMYDR
MCF7 CARM1 KO cells; [17]
  CARM1 140-608/WT: -0.09536
MCF7 CARM1 KO cells; [18]
  KO/WT: 1.04
MCF7 cells; MCF7 CARM1 knockout vs wild type, 3 biological replicates each, values are on log2 scale
  Fold change KO/WT: 0.5689

## CrQPAPPTSQPPrAQPFAQPPGPWPLSSPGPrLVFNR
MCF7 CARM1 KO cells; [12]
  CARM1 140-608/WT: -1.684
  KO/WT: -3.117
MCF7 cells; [13]
  Fold change KO/WT: -3.117

## QMAVPSFTQQILCPKPVHVrPPMPPrYPAPYGER
MCF7 CARM1 KO cells; [14]
  CARM1 140-608/WT: 0.05331
MCF7 CARM1 KO cells; [15]
  KO/WT: -2.9202
MCF7 cells; [8]
  Fold change KO/WT: -2.943

## GPrFEGNrPDGPrPrYEGHPAEGTK
MCF7 CARM1 KO cells; [3]
  CARM1 140-608/WT: -4.084
MCF7 CARM1 KO cells; [4]
  KO/WT: -5.484
MCF7 cells; [5]
  Fold change KO/WT: -5.083

## GALSISAPLGDFrHTLHVGR
MCF7 CARM1 KO cells; [12]
  CARM1 140-608/WT: -1.004
  KO/WT: -1.149
MCF7 cells; [11]
  Fold change KO/WT: -1.149

## QPQPAQNVLAAPrLR
MCF7 CARM1 KO cells; [14]
  CARM1 140-608/WT: -0.6318
MCF7 CARM1 KO cells; [15]
  KO/WT: -1.672
MCF7 cells; [8]
  Fold change KO/WT: -1.672

## LINFQNHSPKPNGPVLPPHPQQLrYPPNQNIPrQAIKPNPLQMAFLAQQAIK
MCF7 CARM1 KO cells; [3]
  CARM1 140-608/WT: 0.7941
MCF7 CARM1 KO cells; [4]
  KO/WT: -2.136
MCF7 cells; [2]
  Fold change KO/WT: -2.471

## ErLALAGPQLrPEMSYPDR
MCF7 CARM1 KO cells; [19]
  CARM1 140-608/WT: -2.2623
MCF7 CARM1 KO cells; [20]
  KO/WT: -2.989
MCF7 cells; [16]
  Fold change KO/WT: -2.989

## FGGPVHHQAQrFR
MCF7 CARM1 KO cells; [12]
  CARM1 140-608/WT: -0.8111
  KO/WT: -0.6051
MCF7 cells; [13]
  Fold change KO/WT: -0.6051

## KPLGTAPHCPrLPLR
MCF7 CARM1 KO cells; [17]
  CARM1 140-608/WT: -2.281
MCF7 CARM1 KO cells; [18]
  KO/WT: -3.016
MCF7 cells; [13]
  Fold change KO/WT: -3.016

## LHrSPLTFPAWVrPPEAAR
MCF7 CARM1 KO cells; [12]
  CARM1 140-608/WT: -1.436
  KO/WT: -1.489
MCF7 cells; [13]
  Fold change KO/WT: -1.489

## GQLFrLPSALNR
MCF7 CARM1 KO cells; [12]
  CARM1 140-608/WT: -1.812
  KO/WT: -4.117
MCF7 cells; [13]
  Fold change KO/WT: -4.127

## STNPELPPrLGPVPSGLSQK
MCF7 CARM1 KO cells; [12]
  CARM1 140-608/WT: -2.1
  KO/WT: -2.804
MCF7 cells; [13]
  Fold change KO/WT: -2.804

## LAQNAArIPGIPrHSGPQYSMMQPHLQR
MCF7 CARM1 KO cells; [3]
  CARM1 140-608/WT: -0.4462
MCF7 CARM1 KO cells; [4]
  KO/WT: -2.068
MCF7 cells; [5]
  Fold change KO/WT: -2.189
